Reference: US20150148387A1, “METHODS OF TREATMENT, DIAGNOSIS AND […] METHA[…] WHICH TARGET CERAMIDE METABOLIC […] AND […] SENESCENCE” (priority 2012, published 2015)

Tests used:
[1] = tested on: primary mouse embryonic fibroblasts (MEF); format: cell-based
Procedure: Cells were washed with ice-cold phosphate-buffered saline (PBS) and scraped into 0.5 ml of methanol/water (1:1, vol:vol) containing the internal standards listed below. Protein concentrations were measured using the BCA protein assay (Pierce, Rockford, Ill., USA). Lipids were extracted with chloroform/methanol (2:1, vol:vol; 1.0 mL). The organic phases were collected, dried under nitrogen and dissolved in methanol for LC/MS analyses.
Helium was used as collision gas. […] Mobile phase composition was as described above.
Mouse embryonic fibroblasts (MEFs) were prepared from mice embryo as previously reported. Briefly, pregnant mice at day 13 post coitum were sacrificed and the uteri were dissected out. Each embryo was separated from the placenta and the head and visceral tissues were removed. The remaining body was minced in PBS and incubated with 0.1 mM trypsin/1 mM EDTA at 37° C. for 15 min. Two volumes of Dulbecco's Modified Eagle Medium (DMEM) containing 10% fetal bovine serum (FBS) was added and stood for 5 minutes to settle down large pieces of unbroken tissues. The supernatant was then removed and centrifuged at 200×g for 5 min and suspended in fresh DMEM containing 10% FBS. Cells were cultured at 37° C. with 5% CO2.

[2] = tested on: primary mouse embryonic fibroblasts (MEF); test: ROS production in MEF (CM-H2DCFDA); format: cell-based; conditions: CYP inhibitors with methamphetamine
Procedure: Production of ROS was measured using the fluorescent probe CM-H2DCFDA (Invitrogen). This carboxy derivative of fluorescein carries additional negative charges that improve its retention compared to noncarboxylated forms. For these experiments, MEFs were grown in DMEM without phenol red, for which anti-oxidative properties have been reported. Cells were plated to subconfluence in 12-well plates, washed 3 times with pre-warmed PBS and loaded for 30 min at 37° C./5% CO2 with […] CM-H2DCFDA in DMEM without phenol red (loading medium). Then the loading medium was removed and pre-warmed fresh medium containing the different CYP450 inhibitors in presence or absence of methamphetamine was added. Fluorescence (excitation at 485 nm, emission at 530 nm) was analyzed immediately, cells were incubated at 37° C./5% CO2, and fluorescence was analyzed at the indicated time points. ROS rate versus control (%) was calculated subtracting the percentage of ROS increasing from time zero in the methamphetamine-treated samples to the percentage of ROS increasing from time zero in vehicle-treated samples.

cytochrome P450 (CYP) = test: Cell-associated methamphetamine content in MEF with CYP inhibitor (LC/MS); conditions: methamphetamine 1 mM 24 h, inhibitor 1-10 μM

Structure (SMILES): Clc1ccccc1C(c1ccccc1)(c1ccccc1)n1ccnc1 [clotrimazole]
- baseline ceramide content ([1]; MEF without methamphetamine, inhibitor 10 μM, n=3, […]): 49.2±3 pmol-mg^−1 protein
- methamphetamine-induced ceramide accumulation ([1]; MEF, inhibitor 1-10 μM): decreased
- release of ROS evoked by methamphetamine [2]: prevented
- levels of non-metabolized methamphetamine (cytochrome P450 (CYP)): increased
